Paper PMC3706801 (Alzheimer's Research & Therapy, 2013)

Legend:
[1] = test system: NT2/D1 cells; assay: Curcuminoid binding to NT2/D1 cells
Protocol: NT2/D1 cells were grown in 25 cm^2 flasks to a density of about 90% confluence (6 to 8 × 10^6 cells) with 6 ml of Dulbecco's Minimal Essential Medium (DMEM) containing 5% fetal calf serum (FCS). […] The remaining volume consisted of varying ratios of DMEM and mouse serum to generate dose curves with constant curcuminoid and variable serum concentrations. […] Cells were then washed three times in the flasks with 5 mL of 0.9% saline and then scraped into 1 ml of the same solution. The cell suspension was centrifuged at 3,000 × g for one minute and the supernatant removed. The cell pellet was resuspended in 1 ml of 0.6% saline and re-centrifuged. The final pellet was suspended in 0.4 ml of 0.6% saline and mixed with 0.8 ml of acetone. All samples were stored at -20°C for 2 to 16 h and processed for reversed phase chromatography as described above for tissue preparation.

[2] = parameters: method as in PMID 17340565; conditions: i.v. 10 mg/kg in DMA/PEG/dextrose, rats; read-out: initial plasma concentrations; cited from earlier work
[3] = parameters: method as in PMID 18417733; conditions: intramuscular 3 mg/kg, four hours after injection; cited from earlier work
[4] = cited from earlier work
[5] = HP-γ-CD-solubilized, dose curve ~50% BMAX, Figure 9B left
[6] = HP-γ-CD-solubilized, saturating (100% BMAX), 300 μM, no serum, Figure 9B middle
[7] = HP-γ-CD-solubilized, serum competition, 95% serum, Figure 9B right
[8] = mouse serum-solubilized, dose curve ~50% BMAX, Figure 9A left
[9] = mouse serum-solubilized, saturating (100% BMAX), 200 μM, 5% serum, Figure 9A middle
[10] = mouse serum-solubilized, serum competition, 100% serum, Figure 9A right

Molecule | relative contribution to cell-bound curcuminoids (percentage of the total) [1, 5] [%] | relative contribution to cell-bound curcuminoids (percentage of the total) [1, 6] [%] | relative contribution to cell-bound curcuminoids (percentage of the total) [1, 7] [%] | relative contribution to cell-bound curcuminoids (percentage of the total) [1, 8] [%] | relative contribution to cell-bound curcuminoids (percentage of the total) [1, 9] [%] | relative contribution to cell-bound curcuminoids (percentage of the total) [1, 10] [%] | C0 [2] [µM] | brain levels [3] | plasma levels after oral administration [4] [µM]
bisdemethoxycurcumin [BDMC] | 35 | 48 | 26 | 27 | 15 | 15 | – | – | –
curcumin | 42 | 28 | 55 | 49 | 61 | 65 | ~27 | approximately 3.2 nmol/g | ≤ 1
COc1cc(/C=C/C(O)=C/C(=O)/C=C/c2ccc(O)cc2)ccc1O [DMC, demethoxycurcumin] | 23 | 24 | 19 | 24 | 24 | 20 | – | – | –
